Reference: article PMC11793105, “A kalihinol analog disrupts apicoplast function and vesicular trafficking in P. falciparum malaria” (Science (New York, N.Y.), 2024)

Assays:
[1] = test system: P. knowlesi YH1 human erythrocyte infecting parasites; assay: P. knowlesi in vitro IC50 assay (flow cytometry), human erythrocytes; type: cell-based; conditions: Plasmodium knowlesi
Protocol: Fig. 5. In vivo and broad-spectrum antimalarial efficacy of MED6-189. (A) The in vivo efficacy of MED6-189 was evaluated in a humanized mouse model infected with P. falciparum (blue) compared with untreated controls (black). […] The graphs illustrate the logarithmic growth of parasites (y axis) in response to varying drug concentrations (x axis). Error bars represent standard deviations from two independent experiments conducted in triplicate. The regression line is derived from a nonlinear regression analysis (variable slope with four parameters, least squares fit). (C) Proposed mode of action of MED6-189 in P. falciparum–infected erythrocytes. […]
Detailed information on materials and methods is available in the supplementary materials. […] P. knowlesi assays were quantitatively measured by flow cytometry using SYBR Green I and Mitrotracker Deep Red, as previously described ([84], [85]), on a Beckman Coulter CytoFLEX. […]
P. falciparum in vitro SYBR green fluorescence-based assays The anti-malarial activity of individual analogues were evaluated in-vitro against P. falciparum 3D7 (MRA-102, drug […]
green-I based fluorescence assay. Parasite growth rate and stages of development were determined via microscopy through Giemsa-stained smears of the cultures. […]

[2] = Time course stability to conditions of varying pH (mass spectrometric assay); type: physicochemical; conditions: aqueous buffers pH 2-7, room temperature, 10 min to 16 h; stable down to pH 4
Protocol: removed under reduced pressure in a rotary evaporator then under high vacuum to afford bis-formamide GB-209-3 as a colorless oil that solidified upon standing (5.2 mg, 96% yield).
Note: GB-209-3 was observed as four different amide rotamer ic species (estimated ratio = 54:35:7:4) under ambient conditions, complicating NMR spectroscopic analysis:
Isonitriles are known to be somewhat reactive functional groups. While previous studies […]
stability,3 we also wanted to account for the potential stomach-acid-catalyzed hydrolysis of the isonitriles in the course of in vivo experiments. We developed a mass spectrometric assay to understand the acid stability of the isonitriles with respect to hydrolysis to the corresponding formamides. […]
Supporting Table 1. a. Ionization (ES+) and b. inlet parameters for quantification of MED6-189 and formamides GB-209-2, and GB-209-3. […]
GB-209-2 and GB-209-3 were determined for each aliquot and plotted over time for respective pH values in the figure below describing the time course stability of MED6 -189 to conditions of varying pH over time via quantitative analysis of formamide products GB -209-2 and GB-209-3.
Time course stability of MED6 -189 to conditions of varying pH over time via quantitative analysis of formamide products GB -209-2 and GB-209-3. […]

SMILES: [C-]#[N+][C@]1(C)CC[C@H]2[C@@H]([C@@H](C(C)C)CC[C@]2(C)[N+]#[C-])[C@H]1O [MED6-189]
- IC50 [1]: 309 ± 42 nM
- stability to aqueous acidic conditions (hydrolysis to formamides) [2]: reasonable stability
